Entries after “also recorded” stand apart in the source; their conditions may differ.
Key:
permeabilized cells = details: cellular level / environments with other cellular components, e.g.; cited from earlier work
S-1-P aldolase [1] = details: mode of inhibition, in words; cited from earlier work
rat liver aldolase = biological target: T1, rat liver aldolase (Rattus norvegicus, UniProt Q8CHN6); test: in vitro biological evaluation: inhibition of rat liver aldolase; type: biochemical; details: read-out: IC50, inhibited rat liver aldolase
T1 construct: from tissue; host or cells: rat liver
T1 sequence (Q8CHN6 1-568): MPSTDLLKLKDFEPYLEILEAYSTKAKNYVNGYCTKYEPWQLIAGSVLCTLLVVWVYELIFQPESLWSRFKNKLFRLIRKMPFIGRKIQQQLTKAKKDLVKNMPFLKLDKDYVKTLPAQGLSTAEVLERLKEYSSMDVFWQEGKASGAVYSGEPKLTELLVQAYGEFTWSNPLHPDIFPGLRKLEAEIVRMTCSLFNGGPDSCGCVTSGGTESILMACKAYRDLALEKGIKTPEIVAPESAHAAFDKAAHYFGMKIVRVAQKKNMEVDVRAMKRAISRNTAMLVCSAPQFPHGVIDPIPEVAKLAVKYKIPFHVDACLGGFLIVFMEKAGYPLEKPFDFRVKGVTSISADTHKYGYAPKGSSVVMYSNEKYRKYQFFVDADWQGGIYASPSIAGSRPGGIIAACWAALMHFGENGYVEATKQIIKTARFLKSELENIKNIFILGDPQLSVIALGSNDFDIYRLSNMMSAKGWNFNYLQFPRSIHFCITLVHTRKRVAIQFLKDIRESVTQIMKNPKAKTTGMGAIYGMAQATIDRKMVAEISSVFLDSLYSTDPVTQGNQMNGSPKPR

S-1-P aldolase [2] = test: time dependent (irreversible) inhibition of S-1-P aldolase; type: biochemical; details: mode of inhibition, in words
[3] = tested on: permeabilized smooth muscle cells; details: IP3-sensitive and IP3-insensitive pools; cited from earlier work
Swiss 3T3 fibroblasts = details: in words; cited from earlier work
protein kinase C = details: in words; cited from earlier work

Row | IC50 (rat liver aldolase) [µM] | time dependent (irreversible) inhibitor of S-1-P aldolase (S-1-P aldolase [2]) | Structure (SMILES) | further results
1 | – | – | CCCCCCCCCCCCCCCC(O)C(N)CP(=O)(O)O (stereo not shown) [DS-1-P, dihydrosphingosine-1-phosphonate] | toxicity (permeabilized cells): highly toxic; also recorded: well known toxin; inhibition of the S-1-P aldolase reaction (S-1-P aldolase [1]): competitive inhibition
2 | 0.8 | – | CCCCCCCCCCCCCCCC(O)C(COP(=O)(O)O)NN (stereo not shown) [Example 3, 2-hydrazino deamino dihydrosphingosine-1-phosphate] | –
3 | 2.4 | time dependent (irreversible) inhibitor | C=CC(N)(COP(=O)(O)O)C(O)CCCCCCCCCCCCCCC (stereo not shown) [Example 4, 2-vinyl dihydrosphingosine-1-phosphate] | –
4 | 1.1 | time dependent (irreversible) inhibitor | C=CC(N)COP(=O)(O)O (stereo not shown) [Example 5, 2-vinyl ethanolamine-O-phosphate] | –
5 | – | – | CCCCCCCCCCCCC/C=C/[C@@H](O)[C@@H](N)COP(=O)(O)O [Example S-1-P, sphingosine-1-phosphate] | translocation of calcium from intracellular stores [3]: rapid translocation of calcium from intracellular stores; mitogenic effect in Swiss 3T3 fibroblasts (Swiss 3T3 fibroblasts): very potent mitogen
6 | – | – | CCCCCCCCCCCCC/C=C/[C@@H](O)[C@@H](N)CO [sphingosine] | inhibition of protein kinase C (protein kinase C): potent and specific inhibitor
